Results as given in ChEMBL document CHEMBL3137381, “MMV Box Onchocerca lienalis screening set”.

How the values were obtained:
Format in all cases: functional
Onchocerca lienalis [1] = test: MMV: Percent motility assay at a compound concentration of 3.1e-6 M. Activity score legend: 3: Active, 2: Moderately active; 1: Inactive, 0: Toxic; details: at 3.1 µM
Onchocerca lienalis [2] = test: MMV: Percent motility assay at a compound concentration of 1.25e-5 M. Activity score legend: 3: Active, 2: Moderately active; 1: Inactive, 0: Toxic; details: at 12.5 µM
Onchocerca lienalis [3] = test: MMV: Percent motility assay at a compound concentration of 7.8e-7 M. Activity score legend: 3: Active, 2: Moderately active; 1: Inactive, 0: Toxic; details: at 0.78 µM
Onchocerca lienalis [4] = test: MMV: Percent motility assay at a compound concentration of 1.9e-7 M. Activity score legend: 3: Active, 2: Moderately active; 1: Inactive, 0: Toxic; details: at 0.19 µM

Measured: Motility

O=C1c2ccccc2-c2nnc(-c3ccc(Br)cc3)cc21
100%: Onchocerca lienalis [1] | Onchocerca lienalis [2] | Onchocerca lienalis [3] | Onchocerca lienalis [4]

CCOC(=O)C1=C(C)N=c2sc(=Cc3cc(Cl)ccc3O)c(=O)n2C1c1ccc(OC)cc1 (stereo not drawn)
100%: Onchocerca lienalis [1] | Onchocerca lienalis [2] | Onchocerca lienalis [3] | Onchocerca lienalis [4]

Cc1nc2ccccc2c(O)c1CC=C(Cl)Cl
100%: Onchocerca lienalis [1] | Onchocerca lienalis [2] | Onchocerca lienalis [3] | Onchocerca lienalis [4]

CC(=O)c1ccc(NC(=O)CSc2nc(-c3ccccc3Cl)ns2)cc1
100%: Onchocerca lienalis [1] | Onchocerca lienalis [2] | Onchocerca lienalis [3] | Onchocerca lienalis [4]

COc1ccc(C(=O)NC(c2ccc(Cl)cc2Cl)c2cc(Cl)c3cccnc3c2O)cc1 (stereo not drawn)
100%: Onchocerca lienalis [1] | Onchocerca lienalis [2] | Onchocerca lienalis [3] | Onchocerca lienalis [4]

O=C(NCCCN1CCC(N2CCCCC2)CC1)C1=Cc2cc(Br)ccc2OC1
100%: Onchocerca lienalis [1] | Onchocerca lienalis [2] | Onchocerca lienalis [3] | Onchocerca lienalis [4]

Cc1ccc(OCCCCCCNCCO)c(C)c1
100%: Onchocerca lienalis [1] | Onchocerca lienalis [2] | Onchocerca lienalis [3] | Onchocerca lienalis [4]

CCOC(=O)c1cnc2ccc(Cl)cc2c1NCCCN(C)C
100%: Onchocerca lienalis [1] | Onchocerca lienalis [2] | Onchocerca lienalis [3] | Onchocerca lienalis [4]

O=C1c2ccccc2C2=Nc3ccccc3SC(c3cccc(F)c3)C12 (stereo not drawn)
100%: Onchocerca lienalis [1] | Onchocerca lienalis [2] | Onchocerca lienalis [3] | Onchocerca lienalis [4]

Cc1ccccc1OCCSc1nc2ccc(NC(=O)c3ccccc3)cc2s1
100%: Onchocerca lienalis [1] | Onchocerca lienalis [2] | Onchocerca lienalis [3] | Onchocerca lienalis [4]

CC(C)(C)c1ccc(C(=O)Nc2c3c(nn2-c2cccc(Cl)c2)CSC3)cc1
100%: Onchocerca lienalis [1] | Onchocerca lienalis [2] | Onchocerca lienalis [3] | Onchocerca lienalis [4]

CCCCCCn1c(=N)n(CC(O)COc2cccc(C)c2)c2ccccc21.Cl (stereo not drawn)
100%: Onchocerca lienalis [1] | Onchocerca lienalis [2] | Onchocerca lienalis [3] | Onchocerca lienalis [4]

CCOC(=O)C1(Cc2ccccc2)CCN(Cc2cccc(OC)c2O)CC1
100%: Onchocerca lienalis [1] | Onchocerca lienalis [2] | Onchocerca lienalis [3] | Onchocerca lienalis [4]

Oc1ccc(C(=C(Cl)Cl)c2ccc(O)cc2)cc1
100%: Onchocerca lienalis [1] | Onchocerca lienalis [2] | Onchocerca lienalis [3] | Onchocerca lienalis [4]

CC(C)(C)c1ccc2c(c1)CN(Cc1ccc(Cl)cc1)CO2
100%: Onchocerca lienalis [1] | Onchocerca lienalis [2] | Onchocerca lienalis [3] | Onchocerca lienalis [4]

COc1ccc(OC)c(C2C3=C(CC(C)(C)CC3=O)N(c3ccc(Cl)c(Cl)c3)C3=C2C(=O)CC(C)(C)C3)c1
100%: Onchocerca lienalis [1] | Onchocerca lienalis [2] | Onchocerca lienalis [3] | Onchocerca lienalis [4]

OC1CCCCC1C1(NC(=S)Nc2ccccc2)CCCCC1 (stereo not drawn)
100%: Onchocerca lienalis [1] | Onchocerca lienalis [2] | Onchocerca lienalis [3] | Onchocerca lienalis [4]

OC1=C2C(=Nc3ccccc3SC2c2ccc(Br)cc2)c2ccccc21 (stereo not drawn)
100%: Onchocerca lienalis [1] | Onchocerca lienalis [2] | Onchocerca lienalis [3] | Onchocerca lienalis [4]

COc1ccc(C)c2sc(N(Cc3cccnc3)C(=O)c3ccc(C#N)cc3)nc12
100%: Onchocerca lienalis [1] | Onchocerca lienalis [2] | Onchocerca lienalis [3] | Onchocerca lienalis [4]

CCCCCn1c(=N)n(CC(O)COc2cccc(C)c2)c2ccccc21.Cl (stereo not drawn)
100%: Onchocerca lienalis [1] | Onchocerca lienalis [2] | Onchocerca lienalis [3] | Onchocerca lienalis [4]

CCN1CCN(c2c(C(=O)c3ccccc3)cnc3cc(OC)c(OC)cc23)CC1
100%: Onchocerca lienalis [1] | Onchocerca lienalis [2] | Onchocerca lienalis [3] | Onchocerca lienalis [4]

Cc1ccc(S(=O)(=O)c2c(COC(=O)c3cccc(C)c3)c(-c3ccccc3)nn2C)cc1
100%: Onchocerca lienalis [1] | Onchocerca lienalis [2] | Onchocerca lienalis [3] | Onchocerca lienalis [4]
